The text below walks through data of patent publication US8637496B2, “Compounds having a monogalactosyldiacylglycerol synthase inhibitory activity as herbicide or algaecide, herbicide and algaecide compositions” (Commissariat a l'Energie Atomique, priority 2007, dated 2014).

Where a name gives a salt, the structure may show the parent alone.

Test [1] relates to Chlamydomonas reinhardtii. In words: Chlamydomonas reinhardtii growth assay. Type of test: cell-based. Particulars: day three (d=3). The protocol:
An axenic suspension of Chlamydomonas reinhardtii (10 μl) is introduced in a liquid TAP medium (Tris-Acetate-Phosphate medium, as described by Rochaix et al., (The Molecular Biology of Chloroplasts and Mitochondria in Chlamydomeonas; Advances in Photosynthesis, (1998) Vol. 7. Kluwer Academic Publishers, Dordrecht, The Netherlands) with or without compound according to the invention. The compounds to be tested have been solubilized in dimethylsulfoxide (DMSO) and supplied directly in the growth medium, at concentrations ranging from 0 to 200 μM. Final concentration of DMSO in medium was 10%. Chlamydomonas suspensions were then grown at 20° C., under continuous light (50 μE.m^−2.s^−1). Growth was assessed by counting the algae in a 40 μl aliquot using a Malassez cell and examining the cell vitality by standard microscopic methods.
Control herbicide is Triclosan.

Test [2] concerns the target T1, MGDG synthase in isolated spinach chloroplast envelope membranes (Spinacia oleracea, UniProt Q9SM44).
T1 construct: envelope membranes purified from the lysate by sucrose centrifugation gradient; from tissue; host or cells: envelope membranes of chloroplasts from spinach leaves
T1 sequence (Q9SM44 99-522): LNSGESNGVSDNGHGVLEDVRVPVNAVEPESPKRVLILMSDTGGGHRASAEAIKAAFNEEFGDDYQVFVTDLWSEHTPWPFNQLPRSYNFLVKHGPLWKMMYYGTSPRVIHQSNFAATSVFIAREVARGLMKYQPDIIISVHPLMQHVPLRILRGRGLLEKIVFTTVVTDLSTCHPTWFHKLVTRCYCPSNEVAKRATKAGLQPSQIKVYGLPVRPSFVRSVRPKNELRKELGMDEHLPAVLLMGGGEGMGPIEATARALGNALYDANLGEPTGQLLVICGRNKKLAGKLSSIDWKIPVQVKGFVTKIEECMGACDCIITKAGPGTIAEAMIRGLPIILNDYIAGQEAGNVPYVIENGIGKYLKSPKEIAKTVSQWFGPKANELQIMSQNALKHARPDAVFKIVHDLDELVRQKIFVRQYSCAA
Description: MGDG synthase activity in envelope membrane fractions isolated from spinach chloroplasts. It counts as biochemical. The note with it: Table 1, obtained in the same manner as FIG. 4; read-out: Inhibitory effect on MGDG synthesis in isolated spinach chloroplast envelope membranes. An excerpt: All the operations have been carried out as described in the article by Maréchal, E. et al., J. Biol. Chem., 1995, 270, 5714-5722. Crude chloroplasts were obtained from 3-4 kg of spinach leaves and purified by isopycnic centrifugation using Percoll gradients. Purified intact chloroplasts have then been lysed in hypotonic medium and envelope membranes purified from the lysate by sucrose centrifugation gradient as described in the article by Douce, R. and Joyard, J., (1982) in Methods in Chloroplast Molecular Biology (Edelman, M., Hallick R and Chua N H eds), pp 239-256, Elsevier Science Publishers B.V. Amsterdam.
MGDG synthase activity was assayed as described in the article by Maréchal et al. (1995).

With `O=c1[nH]c2ccccc2n1C1CCN(C(=S)OCCOCc2ccccc2)CC1` [Compound 20, O-2-(benzyloxy)ethyl 4-(1,2-dihydro-2-oxobenzo[d]imidazol-3-yl)piperidine-1-carbothioate], the “morphology of Chlamydomonas when incubated with compound (FIG. 6)” value in test [1] is reported as “fails to divide”. The IC50 in test [2] fell in the range of 100 to 500 µM.
With `O=C(OCCCN(Cc1ccccc1)Cc1ccc(F)cc1)N1CCC(n2c(=O)[nH]c3ccccc32)CC1` [Compound 67, 3-(benzyl(4-fluorobenzyl)amino)propyl 4-(2-oxo-2,3-dihydro-1H-benzo[d]imidazol-1-yl)piperidine-1-carboxylate hydrochloride], the IC50 in test [2] stood at 12 µM.
Still for that read-out and setting: under `O=C(OCC(Cc1ccccc1)NCc1ccccc1)N1CCC(n2c(=O)[nH]c3ccccc32)CC1` (centres unmarked) [Compound 88, 2-(benzylamino)-3-phenylpropyl 4-(2-oxo-2,3-dihydro-1H-benzo[d]imidazol-1-yl)piperidine-1-carboxylate] stands 60 µM.
On to `C[C@@H](COC(=O)N1CCC(n2c(=O)[nH]c3ccccc32)CC1)N(CCCc1ccccc1)Cc1ccccc1` [Compound 52, (S)-2-(benzyl(3-phenylpropyl)amino)propyl 4-(2-oxo-2,3-dihydro-1H-benzo[d]imidazol-1-yl)piperidine-1-carboxylate hydrochloride], for which the IC50 in test [2] amounted to 60 µM.
On to `O=C(OCC(c1ccccc1)c1ccccc1)N1CCC(n2c(=O)[nH]c3ccccc32)CC1` [Compound 18, 2,2-diphenylethyl 4-(1,2-dihydro-2-oxobenzo[d]imidazol-3-yl)piperidine-1-carboxylate], for which the IC50 in test [2] was 50 µM.
Regarding `CC(C)(C)OC(=O)N(CCOC(=O)N1CCC(n2c(=O)[nH]c3ccccc32)CC1)Cc1ccccc1` [Compound 65, 2-(benzyl(tert-butoxycarbonyl)amino)ethyl 4-(2-oxo-2,3-dihydro-1H-benzo[d]imidazol-1-yl)piperidine-1-carboxylate], in test [2], the IC50 came to 12 µM.
Turning to `C[C@@H](COC(=O)N1CCC(n2c(=O)n(C(=O)c3ccccc3)c3ccccc32)CC1)N(Cc1ccccc1)Cc1ccccc1` [Compound 21, (S)-2-(dibenzylamino)propyl 4-(1,2-dihydro-2-oxo-1-(benzoyl)benzo[d]imidazol-3-yl)piperidine-1-carboxylate], the IC50 in test [2] was found to be 50 µM.
For `C[C@@H](COC(=O)N1CCC(n2c(=O)[nH]c3ccccc32)CC1)N(Cc1ccccc1)Cc1ccnc2ccccc12` [Compound 53, (S)-2-(benzyl(quinolin-4-ylmethyl)amino)propyl 4-(2-oxo-2,3-dihydro-1H-benzo[d]imidazol-1-yl)piperidine-1-carboxylate hydrochloride], the IC50 in test [2] turned out to be 60 µM.
On to `CC(C)(C)OC(=O)N(Cc1ccccc1)[C@H](COC(=O)N1CCC(n2c(=O)[nH]c3ccccc32)CC1)Cc1ccccc1` [Compound 86, (S)-2-(benzyl(tert-butoxycarbonyl)amino)-3-phenylpropyl 4-(2-oxo-2,3-dihydro-1H-benzo[d]imidazol-1-yl)piperidine-1-carboxylate], for which the IC50 in test [2] is 5 µM.
As to `O=C(OCCCN(Cc1ccccc1)Cc1ccoc1)N1CCC(n2c(=O)[nH]c3ccccc32)CC1` [Compound 80, 3-(benzyl(furan-3-ylmethyl)amino)propyl 4-(2-oxo-2,3-dihydro-1H-benzo[d]imidazol-1-yl)piperidine-1-carboxylate], the IC50 in test [2] came out at 50 µM.
Regarding `O=C(OCCCN(Cc1ccccc1)Cc1cccs1)N1CCC(n2c(=O)[nH]c3ccccc32)CC1` [Compound 66, 3-(benzyl(thiophen-2-ylmethyl)amino)propyl 4-(2-oxo-2,3-dihydro-1H-benzo[d]imidazol-1-yl)piperidine-1-carboxylate hydrochloride], the IC50 in test [2] was found to be 50 µM.
Same read-out and setting: then `O=C(OCCC(c1ccccc1)c1ccccc1)N1CCC(n2c(=O)[nH]c3ccccc32)CC1` [Compound 12, 3,3-diphenylpropyl 4-(1,2-dihydro-2-oxobenzo[d]imidazol-3-yl)piperidine-1-carboxylate], with 45 µM; and `O=C(OCCN(Cc1ccccc1)Cc1ccc(Cl)cc1)N1CCC(n2c(=O)[nH]c3ccccc32)CC1` [Compound 74, 2-(benzyl(4-chlorobenzyl)amino)ethyl 4-(2-oxo-2,3-dihydro-1H-benzo[d]imidazol-1-yl)piperidine-1-carboxylate], with 8 µM.
On to `C[C@@H](COC(=O)N1CCC(n2c(=O)[nH]c3ccccc32)CC1)N(Cc1ccccc1)Cc1ccco1` [Compound 79, (S)-2-(benzyl(furan-2-ylmethyl)amino)propyl 4-(2-oxo-2,3-dihydro-1H-benzo[d]imidazol-1-yl)piperidine-1-carboxylate], for which the IC50 in test [2] is 25 µM.
Take `CC(C)C[C@@H](COC(=O)N1CCC(n2c(=O)[nH]c3ccccc32)CC1)N(Cc1ccccc1)C(=O)OC(C)(C)C` [Compound 85, (S)-2-(benzyl(tert-butoxycarbonyl)amino)-4-methylpentyl 4-(2-oxo-2,3-dihydro-1H-benzo[d]imidazol-1-yl)piperidine-1-carboxylate]: the IC50 in test [2] was 10 µM.
Same read-out and setting: then `CN(CCOC(=O)N1CCC(n2c(=O)[nH]c3ccccc32)CC1)Cc1ccccc1` [Compound 9, 2-(N-benzyl-N-methylamino)ethyl 4-(1,2-dihydro-2-oxobenzo[d]imidazol-3-yl)piperidine-1-carboxylate], with 100 to 500 µM; and `C[C@@H](COC(=O)N1CCC(n2c(=O)[nH]c3ccccc32)C1)N(Cc1ccccc1)Cc1ccccc1` (stereo partly drawn) [Compound 6, (S)-2-(dibenzylamino)propyl 3-(1,2-dihydro-2-oxobenzo[d]imidazol-3-yl)pyrrolidine-1-carboxylate], with 50 µM.
On to `O=C(OCCCN(Cc1ccccc1)Cc1ccccn1)N1CCC(n2c(=O)[nH]c3ccccc32)CC1` [Compound 59, 3-(benzyl(pyridin-2-ylmethyl)amino)propyl 4-(2-oxo-2,3-dihydro-1H-benzo[d]imidazol-1-yl)piperidine-1-carboxylate hydrochloride], for which, in test [2], the IC50 was 15 µM.
For `COc1cccc(CN(CCCOC(=O)N2CCC(n3c(=O)[nH]c4ccccc43)CC2)Cc2ccccc2)c1` [Compound 68, 3-(benzyl(3-methoxybenzyl)amino)propyl 4-(2-oxo-2,3-dihydro-1H-benzo[d]imidazol-1-yl)piperidine-1-carboxylate hydrochloride], the IC50 in test [2] is 80 µM.
On the same count and under the same terms, then `O=C(OCCCN(Cc1ccccc1)Cc1cccc(OCc2ccccc2)c1)N1CCC(n2c(=O)[nH]c3ccccc32)CC1` [Compound 84, 3-(benzyl(3-(benzyloxy)benzyl)amino)propyl 4-(2-oxo-2,3-dihydro-1H-benzo[d]imidazol-1-yl)piperidine-1-carboxylate], with 45 µM; and `COc1ccc(CN(CCOC(=O)N2CCC(n3c(=O)[nH]c4ccccc43)CC2)Cc2ccccc2)cc1` [Compound 47, 2-(benzyl(4-methoxybenzyl)amino)ethyl 4-(2-oxo-2,3-dihydro-1H-benzo[d]imidazol-1-yl)piperidine-1-carboxylate hydrochloride], with 15 µM.
As to `C[C@@H](COC(=O)N1CCC(n2c(=O)[nH]c3ncccc32)CC1)N(Cc1ccccc1)Cc1ccccc1` [Compound 2, (S)-2-(dibenzylamino)propyl 4-(2,3-dihydro-2-oxoimidazo[4,5-b]pyridin-1-yl)piperidine-1-carboxylate], in test [2], the IC50 was 100 to 500 µM.
With `O=C(OCCCN(Cc1ccccc1)Cc1cccnc1)N1CCC(n2c(=O)[nH]c3ccccc32)CC1` [Compound 58, 3-(benzyl(pyridin-3-ylmethyl)amino)propyl 4-(2-oxo-2,3-dihydro-1H-benzo[d]imidazol-1-yl)piperidine-1-carboxylate hydrochloride], the IC50 in test [2] was 17 µM.
For `COc1ccc(CN(CCCOC(=O)N2CCC(n3c(=O)[nH]c4ccccc43)CC2)Cc2ccccc2)cc1` [Compound 42, 3-(benzyl(4-methoxybenzyl)amino)propyl 4-(2-oxo-2,3-dihydro-1H-benzo[d]imidazol-1-yl)piperidine-1-carboxylate hydrochloride], in test [2], the IC50 was found to be 50 µM.
Consider `C[C@@H](COC(=O)Nc1ccc(-n2c(=O)[nH]c3ccccc32)cc1)N(Cc1ccccc1)Cc1ccccc1` [Compound 27, 2-(dibenzylamino)propyl 4-(1,2-dihydro-2-oxobenzo[d]imidazol-3-yl)phenylcarbamate], for which the IC50 in test [2] is 45 µM.
